The data set in a line: method code SF-AS, from DOI: 10.1016/0045-6535(95)00342-8.
Regarding `CC(C)OC(=O)CC(CSc1ccccc1)C(=O)OC(C)C` (stereo not drawn), the logP (usually a log measure of how a compound divides between an organic and an aqueous phase) turned out to be 3.95. The value for `COC(=O)CC(C)Sc1ccccc1` (stereo not drawn) was 2.61.

With `CC(C)OC(=O)CC(Sc1ccccc1)C(=O)OC(C)C` (stereo not drawn), the logP came to 3.53. With `CC(C)OC(=O)CSc1ccccc1`, the logP worked out at 2.53. The value for `CCOCCOC(=O)CSc1ccccc1` was 1.73; that for `COCCOC(=O)CSc1ccccc1` was 1.02; that for `CCOC(=O)CSc1ccccc1` was 2.12.

In the case of `CCOC(=O)CC(Sc1ccccc1)C(=O)OCC` (stereo not drawn), the lipophilicity (logP) is 2.6.

The compound `CCOC(=O)CCSc1ccccc1` yielded a logP of 2.72. The compound `COC(=O)CC(CSc1ccccc1)C(=O)OC` (stereo not drawn) came in with a lipophilicity (logP) of 1.96. The value for `COC(=O)CSc1ccccc1` was 1.5. The value for `CC(C)COC(=O)CSc1ccccc1` was 3.02; that for `CCOC(=O)CC(CSc1ccccc1)C(=O)OCC` (stereo not drawn) was 2.98. `COC(=O)CC(Sc1ccccc1)C(=O)OC` (stereo not drawn) showed a logP of 1.42. The compound `COC(=O)CCSc1ccccc1` showed a lipophilicity (logP) of 2.04. The value for `CCCOC(=O)CSc1ccccc1` was 2.69; that for `COC(=O)C(C)CSc1ccccc1` (stereo not drawn) was 2.63; that for `CCCCOC(=O)CSc1ccccc1` was 3.26.

(Values after the SangsterLogP compilation.)
